This passage reports Kd and EC50 results from publication PMC2156105 (The Journal of biological chemistry, 2007).

Molecules are shown by their SMILES.

Assay [1] has as its target AMPK γ2 subunit (Bateman domains) (Homo sapiens, UniProt Q9UGJ0). As to the kind of experiment: scintillation proximity assay, displacement of [3H]AMP by unlabelled AMP. The format is binding.
For assay [2], the target named is AMP-activated protein kinase (AMPK), native rat liver αβγ complex (γ1 subunit) (Rattus norvegicus, UniProt P80385). Briefly: kinase activity assay of purified rat liver AMPK. The format is biochemical.
Sequence of AMP-activated protein kinase (AMPK), native rat liver αβγ complex (γ1 subunit) (P80385 whole entry): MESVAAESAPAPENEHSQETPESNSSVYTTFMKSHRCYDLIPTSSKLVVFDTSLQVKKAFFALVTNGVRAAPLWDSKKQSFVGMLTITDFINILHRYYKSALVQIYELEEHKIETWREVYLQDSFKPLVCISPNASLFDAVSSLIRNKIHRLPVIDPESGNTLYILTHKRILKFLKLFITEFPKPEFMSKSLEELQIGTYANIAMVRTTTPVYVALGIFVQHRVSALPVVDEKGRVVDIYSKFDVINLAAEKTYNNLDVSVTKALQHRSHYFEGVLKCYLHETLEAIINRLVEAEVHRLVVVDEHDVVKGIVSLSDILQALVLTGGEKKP
Sequence of AMP-activated protein kinase (AMPK), native rat liver αβγ complex (γ1 subunit) (P54645 whole entry partner): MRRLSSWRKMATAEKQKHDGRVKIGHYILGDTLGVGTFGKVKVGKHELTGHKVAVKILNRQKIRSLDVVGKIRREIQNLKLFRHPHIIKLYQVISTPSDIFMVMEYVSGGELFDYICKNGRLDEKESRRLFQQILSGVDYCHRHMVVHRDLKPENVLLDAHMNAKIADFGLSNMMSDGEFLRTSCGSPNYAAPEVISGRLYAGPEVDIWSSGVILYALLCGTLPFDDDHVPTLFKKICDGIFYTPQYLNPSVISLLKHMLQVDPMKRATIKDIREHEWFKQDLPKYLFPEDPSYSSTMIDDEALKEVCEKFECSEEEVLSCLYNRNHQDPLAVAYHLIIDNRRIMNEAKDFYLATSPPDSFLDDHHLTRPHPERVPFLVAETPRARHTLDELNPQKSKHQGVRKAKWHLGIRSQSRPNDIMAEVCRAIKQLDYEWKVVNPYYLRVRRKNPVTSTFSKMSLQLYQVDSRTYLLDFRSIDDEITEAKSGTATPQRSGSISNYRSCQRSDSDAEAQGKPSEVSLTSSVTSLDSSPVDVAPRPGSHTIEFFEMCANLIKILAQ
Sequence of AMP-activated protein kinase (AMPK), native rat liver αβγ complex (γ1 subunit) (Q09137 whole entry partner): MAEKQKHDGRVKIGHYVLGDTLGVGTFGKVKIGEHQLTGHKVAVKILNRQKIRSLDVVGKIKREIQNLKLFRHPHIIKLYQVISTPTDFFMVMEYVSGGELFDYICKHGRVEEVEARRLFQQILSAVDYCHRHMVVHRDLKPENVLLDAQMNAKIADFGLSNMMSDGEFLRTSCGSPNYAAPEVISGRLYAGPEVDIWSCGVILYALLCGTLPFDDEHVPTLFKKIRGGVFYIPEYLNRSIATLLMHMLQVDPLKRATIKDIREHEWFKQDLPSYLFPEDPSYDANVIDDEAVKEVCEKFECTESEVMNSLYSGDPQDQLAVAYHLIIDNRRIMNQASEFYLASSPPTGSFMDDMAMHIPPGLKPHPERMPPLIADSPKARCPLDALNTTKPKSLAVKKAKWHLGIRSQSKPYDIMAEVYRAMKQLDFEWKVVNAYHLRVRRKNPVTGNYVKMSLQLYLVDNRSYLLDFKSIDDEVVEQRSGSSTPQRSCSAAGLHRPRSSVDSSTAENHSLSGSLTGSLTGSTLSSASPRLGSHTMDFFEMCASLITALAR
Sequence of AMP-activated protein kinase (AMPK), native rat liver αβγ complex (γ1 subunit) (P80386 2-270 partner): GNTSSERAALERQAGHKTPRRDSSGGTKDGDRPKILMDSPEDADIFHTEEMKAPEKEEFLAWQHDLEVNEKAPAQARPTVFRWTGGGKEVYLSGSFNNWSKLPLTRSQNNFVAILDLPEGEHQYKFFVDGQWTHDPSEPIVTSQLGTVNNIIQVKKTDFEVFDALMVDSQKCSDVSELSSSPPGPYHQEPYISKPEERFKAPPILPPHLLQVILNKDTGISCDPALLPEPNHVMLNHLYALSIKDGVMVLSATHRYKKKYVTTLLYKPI

Sequence of AMPK γ2 subunit (Bateman domains) (Q9UGJ0 275-562 limits assumed): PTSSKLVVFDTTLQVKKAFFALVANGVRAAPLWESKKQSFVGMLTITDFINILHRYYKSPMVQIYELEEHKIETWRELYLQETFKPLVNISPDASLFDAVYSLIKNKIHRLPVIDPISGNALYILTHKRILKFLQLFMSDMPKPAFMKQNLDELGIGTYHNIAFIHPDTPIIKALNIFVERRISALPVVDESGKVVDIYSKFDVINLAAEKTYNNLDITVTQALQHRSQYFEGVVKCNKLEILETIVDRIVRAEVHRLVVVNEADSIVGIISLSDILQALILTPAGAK

In the case of `Nc1ncnc2c1ncn2[C@@H]1O[C@H](COP(=O)(O)O)[C@@H](O)[C@H]1O` [AMP], in assay [1], the Kd came out at 80 ± 15 µM. Besides, a half-maximal effect in assay [2] (EC50) was put at 6 ± 3 µM.
